Reference: US20190002399A1 (Nektar Therapeutics, priority 2007, published 2019)
Like-named read-outs stand apart in the source and are kept apart here. Marks after values point to notes of the source that are not given here.

Columns and labels:
[1] = pKa determination of conjugates; format: physicochemical
[2] = Log P determination of conjugates; format: physicochemical
[3] = biological target: T1, human Na channels expressed in native cells (human atrial myocytes) (Homo sapiens, UniProt Q14524); assay: Potency at sodium channels: whole-cell patch clamp of sodium current (INa) in isolated human atrial myocytes; format: cell-based
T1 construct: from tissue; host or cells: cardiomyocytes isolated from human atrial appendages
T1 sequence (Q14524 whole entry): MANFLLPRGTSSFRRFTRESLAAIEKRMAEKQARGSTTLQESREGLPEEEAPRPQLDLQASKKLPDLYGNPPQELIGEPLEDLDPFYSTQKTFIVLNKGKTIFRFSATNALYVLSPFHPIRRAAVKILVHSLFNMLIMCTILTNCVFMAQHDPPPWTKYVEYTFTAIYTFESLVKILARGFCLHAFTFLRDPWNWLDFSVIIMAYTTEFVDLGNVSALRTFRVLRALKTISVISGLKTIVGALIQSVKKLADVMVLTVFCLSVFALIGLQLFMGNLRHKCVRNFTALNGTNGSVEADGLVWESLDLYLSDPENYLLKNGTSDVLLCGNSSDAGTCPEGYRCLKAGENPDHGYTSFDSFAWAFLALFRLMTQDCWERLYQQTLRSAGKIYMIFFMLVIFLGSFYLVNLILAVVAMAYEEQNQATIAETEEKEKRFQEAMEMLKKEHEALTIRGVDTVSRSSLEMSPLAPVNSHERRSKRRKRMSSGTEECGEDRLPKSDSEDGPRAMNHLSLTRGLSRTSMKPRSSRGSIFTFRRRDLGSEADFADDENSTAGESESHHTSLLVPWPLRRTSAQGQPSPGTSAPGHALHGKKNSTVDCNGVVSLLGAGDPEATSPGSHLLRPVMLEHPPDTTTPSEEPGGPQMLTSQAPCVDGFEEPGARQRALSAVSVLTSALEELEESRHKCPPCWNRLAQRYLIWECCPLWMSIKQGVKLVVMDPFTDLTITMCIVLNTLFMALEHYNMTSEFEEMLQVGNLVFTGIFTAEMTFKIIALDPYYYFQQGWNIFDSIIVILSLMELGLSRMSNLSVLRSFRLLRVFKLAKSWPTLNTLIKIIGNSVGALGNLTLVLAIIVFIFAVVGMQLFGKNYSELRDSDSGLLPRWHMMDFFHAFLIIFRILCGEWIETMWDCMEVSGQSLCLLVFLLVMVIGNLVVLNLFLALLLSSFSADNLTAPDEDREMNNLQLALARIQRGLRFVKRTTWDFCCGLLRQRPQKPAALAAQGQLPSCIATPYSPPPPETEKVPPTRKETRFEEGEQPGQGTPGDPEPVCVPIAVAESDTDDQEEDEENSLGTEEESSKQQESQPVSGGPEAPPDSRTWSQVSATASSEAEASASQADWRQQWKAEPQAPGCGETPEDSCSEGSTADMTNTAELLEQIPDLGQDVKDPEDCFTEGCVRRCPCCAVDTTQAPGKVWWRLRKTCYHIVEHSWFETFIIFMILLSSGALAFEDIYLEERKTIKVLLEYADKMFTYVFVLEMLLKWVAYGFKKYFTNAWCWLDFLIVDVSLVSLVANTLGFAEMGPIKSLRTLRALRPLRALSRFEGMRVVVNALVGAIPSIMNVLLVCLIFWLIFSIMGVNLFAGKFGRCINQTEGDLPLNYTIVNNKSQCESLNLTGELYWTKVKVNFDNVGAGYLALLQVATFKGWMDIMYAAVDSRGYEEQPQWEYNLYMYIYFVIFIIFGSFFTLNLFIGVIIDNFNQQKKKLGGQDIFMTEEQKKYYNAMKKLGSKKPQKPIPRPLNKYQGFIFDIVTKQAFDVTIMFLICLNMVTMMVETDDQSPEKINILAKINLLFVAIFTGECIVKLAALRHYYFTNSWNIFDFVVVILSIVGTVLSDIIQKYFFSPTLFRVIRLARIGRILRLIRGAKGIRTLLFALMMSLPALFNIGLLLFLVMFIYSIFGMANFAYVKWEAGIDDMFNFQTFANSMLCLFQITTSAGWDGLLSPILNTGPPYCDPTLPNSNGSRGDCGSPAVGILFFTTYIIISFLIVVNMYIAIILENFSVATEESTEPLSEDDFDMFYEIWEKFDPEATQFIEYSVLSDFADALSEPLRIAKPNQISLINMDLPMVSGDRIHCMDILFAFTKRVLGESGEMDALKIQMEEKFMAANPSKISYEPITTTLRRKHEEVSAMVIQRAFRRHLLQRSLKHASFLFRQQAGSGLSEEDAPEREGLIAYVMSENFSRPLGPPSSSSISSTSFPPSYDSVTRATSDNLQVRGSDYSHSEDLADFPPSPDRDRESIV
Protocol: Experiments were performed at 23±1° C. Currents were measured using the whole-cell variant of the patch clamp method. An Axopatch 1-B amplifier (Axon Instruments, Foster City, Calif.) was used for whole-cell voltage clamping. […] Peak inward current was measured for INa. […] Creation of voltage clamp pulses and data acquisition were controlled by a PC running pClamp software (version 9.2, Axon Instruments). Test compounds were added in a cumulative manner. Data are presented as % reduction of current amplitude. […] Each cell served as its own control. Log-linear plots were created of the mean percent blockade ±SEM at the concentrations tested. Nonlinear curve fitting routine was utilized to fit a three-parameter Hill equation to the results using MicroCal Origin, version 6.0 software.

CB-1 male mice = assay: Analgesic assay: acetic acid writhing test; format: in vivo
Protocol: An analgesic assay was used to determine whether a given compound can reduce and/or prevent visceral pain in mice.
The assay utilized CB-1 male mice (5-8 mice per group), each mouse being approximately 0.015-0.030 kg on the study day. Mice were treated according to standard protocols.
Mice were given a single “pretreatment” dose of a compound lacking covalent attachment of a water-soluble, non-peptidic oligomer, a corresponding conjugate comprising the compound covalently attached to a water-soluble, non-peptidic oligomer, or control solution (IV, SC, IP or orally) thirty minutes prior to the administration of the acetic acid solution. The animal was given an IP injection of an irritant (acetic acid) that induces “writhing” which may include: contractions of the abdomen, twisting and turning of the trunk, arching of the back and the extension of the hind limbs. […] After the injection the animals were returned to their cages and their behavior was observed. Contractions were counted between 0 and 20 minutes after the injection. The animals were used once. […]

[4] = mexiletine series, IC50 at 0.1 Hz relative to mexiletine
[5] = lidocaine series, IC50 at 0.1 Hz relative to lidocaine
[6] = 10 mg/kg, SC, 30 min before IP 0.5% acetic acid, counted 0-20 min
[7] = 10 mg/kg, SC, animals with writhes ≤ upper 95% confidence limit for morphine
[8] = 10 mg/kg, SC, responding animals/N
[9] = lidocaine series, peak INa, human atrial myocytes, pacing 0.1 Hz, 23±1° C

Molecule	pKa1 ([1]; Table 2, mexiletine conjugates)	logP ([2]; read-out: LogP)	Fold Change vs. Parent [3, 4]	IC50 ([3]; read-out: IC50 at 0.1 Hz)	Fold Change vs. Parent [3, 5]	% Reduction in Writhing (CB-1 male mice; 10 mg/kg, SC)	Mean (writhes) (CB-1 male mice; [6])	# of Responders (CB-1 male mice; [7])	Responding Fraction (CB-1 male mice; [8])	other results
COCCOCCOCCOCCOCCOCCOCCNC(C)COc1c(C)cccc1C (stereo not drawn) [N-mPEG7-Mexiletine, N-mPEG7-mexiletine]	8.26	1.23	4	206 µM	–	–	–	–	–	–
CCN(CCOCCOCCOCCOCCOCCOCCOCCOC)CC(=O)Nc1c(C)cccc1C [mPEG8-Lidocaine, mPEG8-lidocaine]	–	0.63	–	57.5 µM	1	37.2%	38.0	2	0.40	pKa ([1]; read-out: pKa): 6.43
Cc1cccc(C)c1OCC(C)NCCOCCOCCOCCNC(C)COc1c(C)cccc1C (stereo not drawn) [PEG4-Di-Mexiletine, PEG4-di-Mexiletine]	7.73	2.36	0.14	7.32 µM	–	–	–	–	–	–
PEG5-di-lidocaine [mPEG5-Di-Lidocaine]	–	–	–	–	1	60.3* %	17.3	2	0.50*	IC50 [3, 9]: 83.3 µM; # of Responders (CB-1 male mice; 3 mg/kg, SC): 2; % Reduction in Writhing (CB-1 male mice; 3 mg/kg, SC): 46.0%; Responding Fraction (CB-1 male mice; 3 mg/kg, SC): 0.50; Mean (writhes) (CB-1 male mice; 3 mg/kg, SC, 30 min before IP 0.5% acetic acid, counted 0-20 min): 23.5
PEG6-di-lidocaine [mPEG6-Di-Lidocaine]	–	–	–	–	2	37.9%	27.0	3	0.60	IC50 [3, 9]: 236 µM
CN(C)C(=O)C(CCN1CCC(O)(c2ccc(Cl)cc2)CC1)(c1ccccc1)c1ccccc1 [Loperamide, reference compound]	–	–	–	–	–	–	–	–	–	# of Responders (CB-1 male mice; 0.75 mg/kg, SC): 4; % Reduction in Writhing (CB-1 male mice; 0.75 mg/kg, SC): 78.6%; Responding Fraction (CB-1 male mice; 0.75 mg/kg, SC): 1.00; Mean (writhes) (CB-1 male mice; 0.75 mg/kg, SC, 30 min before IP 0.5% acetic acid, counted 0-20 min): 9.0
CCN(CCOCCOCCOCCOCCO)CC(=O)Nc1c(C)cccc1C [PEG5-Lidocaine, HO-PEG5-Lidocaine]	–	–	–	330 µM	3	–	–	–	–	–
CCN(CCOCCOCCOCCOCCOCCOCCOCCOCCOC)CC(=O)Nc1c(C)cccc1C [mPEG9-Lidocaine, mPEG9-lidocaine]	–	0.82	–	173 µM	2	–	–	–	–	pKa ([1]; read-out: pKa): 6.57
COCCOCCOCCNC(C)COc1c(C)cccc1C (stereo not drawn) [N-mPEG3-Mexiletine, N-mPEG3-mexiletine]	8.27	2.26	5	284 µM	–	–	–	–	–	–
CCNCCOCCOCCOCCOCCN(CC)CC(=O)Nc1c(C)cccc1C [EtNH-PEG5-Lidocaine, EtNH-PEG5-lidocaine]	–	–	–	99.3 µM	1	–	–	–	–	–
CCN(CCOCCOCCOCCOCCOCCOCCOC)CC(=O)Nc1c(C)cccc1C [mPEG7-Lidocaine, mPEG7-lidocaine]	–	–	–	–	2	40.5%	36.0	2	0.40	pKa ([1]; Table 1, lidocaine conjugates): 6.81; logP ([2]; Table 1, lidocaine conjugates): 1.37; IC50 [3, 9]: 236 µM
CCN(CCOCCOCCOCCOCCOC)CC(=O)Nc1c(C)cccc1C [mPEG5-Lidocaine, mPEG5-lidocaine]	–	–	–	–	1	–	–	–	–	pKa ([1]; Table 1, lidocaine conjugates): 6.46; logP ([2]; Table 1, lidocaine conjugates): 1.01; IC50 [3, 9]: 53.5 µM
COCCOCCOCCN(CCOCCOCCOC)C(C)COc1c(C)cccc1C (stereo not drawn) [N,N-Di-mPEG3-Mexiletine, N,N-di-mPEG3-mexiletine]	7.76	1.96	1	66.2 µM	–	–	–	–	–	–
COCCOCCOCCOCCOCCOCCOCCN(CCOCCOCCOCCOCCOCCOCCOC)C(C)COc1c(C)cccc1C (stereo not drawn) [N,N-Di-mPEG7-Mexiletine, N,N-di-mPEG7-mexiletine]	7.75	0.83	2	130 µM	–	–	–	–	–	–
CCN(CCOCCOCCOCCOC)CC(=O)Nc1c(C)cccc1C [mPEG4-Lidocaine, mPEG4-lidocaine]	–	1.42	–	178 µM	2	–	–	–	–	pKa ([1]; read-out: pKa): 6.46
COCCOCCOCCOCCOCCOCCOCCOCCNC(C)COc1c(C)cccc1C (stereo not drawn) [N-mPEG8-Mexiletine, N-mPEG8-mexiletine]	8.79	1.79	2	90.5 µM	–	65.8%	17.2	3	0.60	–
CCN(CCOCCOCCOCCOCCOCCO)CC(=O)Nc1c(C)cccc1C [PEG6-Lidocaine, HO-PEG6-Lidocaine]	–	–	–	104 µM	1	–	–	–	–	–
COCCOCCOCCOCCOCCNC(C)COc1c(C)cccc1C (stereo not drawn) [N-mPEG5-Mexiletine, N-mPEG5-mexiletine]	8.27	4.51	–	–	–	42.4%	29.0	2	0.40	pKa2 ([1]; Table 2, mexiletine conjugates): 7.86
CCN(CCOCCOCCOCCOCCOCCOC)CC(=O)Nc1c(C)cccc1C [mPEG6-Lidocaine, mPEG6-lidocaine]	–	1.23	–	473 µM	5	–	–	–	–	pKa ([1]; read-out: pKa): 6.46
CN1CC[C@]23c4c5ccc(O)c4O[C@H]2[C@@H](O)C=C[C@H]3[C@H]1C5 [Morphine, morphine, reference compound]	–	–	–	–	–	–	–	–	–	# of Responders (CB-1 male mice; historical morphine data, N 27, animals with writhes ≤ upper 95% confidence limit for morphine): 15; Mean (writhes) (CB-1 male mice; historical morphine data, contractions counted 0-20 min after IP 0.5% acetic acid, group table: SC 0.5 mg/kg): 21.33; % Reduction in Writhing (CB-1 male mice; historical morphine data, group table: SC 0.5 mg/kg): 57%; Responding Fraction (CB-1 male mice; historical morphine data, responding animals/N): 0.56
COCCOCCOCCOCCOCCN(CCOCCOCCOCCOCCOC)C(C)COc1c(C)cccc1C (stereo not drawn) [N,N-Di-mPEG5-Mexiletine, N,N-di-mPEG5-mexiletine]	8.26	1.61	2	95.9 µM	–	–	–	–	–	–
CCN(CCOCCOCCOC)CC(=O)Nc1c(C)cccc1C [mPEG3-Lidocaine, mPEG3-lidocaine]	–	1.55	–	706 µM	7	–	–	–	–	pKa ([1]; read-out: pKa): 6.46
COCCOCCOCCOCCCNC(C)COc1c(C)cccc1C (stereo not drawn) [N-mPEG3-C3-Mexiletine, N-mPEG3-C3-mexiletine]	8.98	2.05	4	188 µM	–	46.3%	29.8	2	0.40	–
CCN(CC)CC(=O)Nc1c(C)cccc1C [Lidocaine, lidocaine, reference compound]	–	–	–	–	–	37.5%	36.3	2	0.50	–
